According to article PMC9134235 (ACS Omega, 2022):

Tests used:
DOR = DOR (Homo sapiens, UniProt P41143); test: DOR-Tango β-arrestin2 recruitment, dose–response; format: cell-based; settings: for agonist / allosteric activity at DOR: 10 μM modulator, in the presence or absence of DADLE; for effect of extracellular Na+ on agonistic activity: reducing extracellular Na+ to 30 mM; for reversal of the agonist activity of EIPA: 10 μM EIPA, increasing antagonist
DOR D95A2.50 = DOR D95A2.50 (Homo sapiens, UniProt P41143, D95A); test: Mutant DOR-Tango β-arrestin2 recruitment; format: cell-based; settings: 10 μM modulator
DOR chimera KOR-TM1 = DOR chimera KOR-TM1 (Homo sapiens, UniProt P41143+P41145, A58V/A61V/C60F/G73V/L55V/L65V/V68S/V75I); test: Chimera DOR-Tango β-arrestin2 recruitment; format: cell-based; settings: 10 μM modulator
DOR WT = DOR WT (Homo sapiens, UniProt P41143); test: 3H-DADLE competition binding; settings: binding experiment in allosteric mode
[1] = system: gonadotropin-releasing hormone receptor (GnRHR); settings: 10 μM; cited from earlier work
M2 muscarinic receptor = molecular target: T1, M2 muscarinic receptor (Homo sapiens, UniProt P08172); test: M2-Tango β-arrestin2 recruitment, carbachol dose–response; format: cell-based; settings: external Na+ increased to 200 mM
T1 sequence (P08172 1-466): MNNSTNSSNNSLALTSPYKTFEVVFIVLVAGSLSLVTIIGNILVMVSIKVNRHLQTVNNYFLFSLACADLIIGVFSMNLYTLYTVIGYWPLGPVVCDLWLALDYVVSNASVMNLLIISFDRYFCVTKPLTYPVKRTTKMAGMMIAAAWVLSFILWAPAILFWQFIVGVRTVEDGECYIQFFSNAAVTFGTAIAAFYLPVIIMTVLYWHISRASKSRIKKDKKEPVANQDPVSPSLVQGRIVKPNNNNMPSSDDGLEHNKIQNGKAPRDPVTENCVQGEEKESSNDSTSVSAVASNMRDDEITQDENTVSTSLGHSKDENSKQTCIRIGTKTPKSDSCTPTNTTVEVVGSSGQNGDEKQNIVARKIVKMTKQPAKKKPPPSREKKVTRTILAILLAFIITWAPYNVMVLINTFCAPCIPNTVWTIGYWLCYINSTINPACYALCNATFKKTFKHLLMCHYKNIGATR

M4 muscarinic receptor = molecular target: T2, M4 muscarinic receptor (Homo sapiens, UniProt P08173); test: M4-Tango β-arrestin2 recruitment, carbachol dose–response; format: cell-based; settings: external Na+ increased to 200 mM
T2 sequence (P08173 1-479): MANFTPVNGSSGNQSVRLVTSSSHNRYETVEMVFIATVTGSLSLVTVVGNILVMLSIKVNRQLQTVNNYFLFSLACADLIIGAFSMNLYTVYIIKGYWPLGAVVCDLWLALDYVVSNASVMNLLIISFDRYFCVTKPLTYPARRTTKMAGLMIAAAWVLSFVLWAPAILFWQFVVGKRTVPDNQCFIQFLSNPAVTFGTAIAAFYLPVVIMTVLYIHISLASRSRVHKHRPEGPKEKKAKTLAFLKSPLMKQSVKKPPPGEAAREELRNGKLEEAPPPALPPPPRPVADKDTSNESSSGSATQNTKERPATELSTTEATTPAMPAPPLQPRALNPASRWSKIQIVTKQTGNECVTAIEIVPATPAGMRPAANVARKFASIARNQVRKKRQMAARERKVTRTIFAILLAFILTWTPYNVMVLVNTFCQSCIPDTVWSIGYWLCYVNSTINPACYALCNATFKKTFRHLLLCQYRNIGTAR

M5 muscarinic receptor = molecular target: T3, M5 muscarinic receptor (Homo sapiens, UniProt P08912); test: M5-Tango β-arrestin2 recruitment, carbachol dose–response; format: cell-based; settings: external Na+ increased to 200 mM
T3 sequence (P08912 1-532): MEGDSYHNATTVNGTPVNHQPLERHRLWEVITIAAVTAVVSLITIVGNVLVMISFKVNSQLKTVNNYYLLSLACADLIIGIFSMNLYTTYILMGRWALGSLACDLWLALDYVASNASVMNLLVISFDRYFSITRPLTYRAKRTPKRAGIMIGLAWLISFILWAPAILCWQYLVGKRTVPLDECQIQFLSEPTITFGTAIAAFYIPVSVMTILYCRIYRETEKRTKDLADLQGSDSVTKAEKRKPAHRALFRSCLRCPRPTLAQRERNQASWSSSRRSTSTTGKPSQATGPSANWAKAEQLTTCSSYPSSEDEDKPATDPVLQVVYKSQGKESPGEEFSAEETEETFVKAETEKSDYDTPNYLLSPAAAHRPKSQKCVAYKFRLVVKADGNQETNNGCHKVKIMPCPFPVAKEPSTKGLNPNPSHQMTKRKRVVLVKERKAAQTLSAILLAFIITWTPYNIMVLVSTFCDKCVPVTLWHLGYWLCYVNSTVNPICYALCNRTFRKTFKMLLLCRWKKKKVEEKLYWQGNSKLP

different GPCRs = settings: cited from earlier work
cells = test: Toxicity to cells; format: cell-based, human; settings: at 10 μM
DOR N131V3.35 = DOR N131V3.35 (Homo sapiens, UniProt P41143, N131V); test: Mutant DOR-Tango β-arrestin2 recruitment; format: cell-based; settings: 10 μM
DOR S135A3.39 = DOR S135A3.39 (Homo sapiens, UniProt P41143, S135A); test: Mutant DOR-Tango β-arrestin2 recruitment; format: cell-based; settings: 10 μM
rat mu-opioid = settings: ref Tracey et al.[45]; cited from earlier work
mouse delta-opioid = settings: ref Tracey et al.[45]; cited from earlier work
kappa-opioid receptor = settings: ref Tracey et al.[45]; cited from earlier work

Sequence of DOR D95A2.50 (P41143 whole entry D95A): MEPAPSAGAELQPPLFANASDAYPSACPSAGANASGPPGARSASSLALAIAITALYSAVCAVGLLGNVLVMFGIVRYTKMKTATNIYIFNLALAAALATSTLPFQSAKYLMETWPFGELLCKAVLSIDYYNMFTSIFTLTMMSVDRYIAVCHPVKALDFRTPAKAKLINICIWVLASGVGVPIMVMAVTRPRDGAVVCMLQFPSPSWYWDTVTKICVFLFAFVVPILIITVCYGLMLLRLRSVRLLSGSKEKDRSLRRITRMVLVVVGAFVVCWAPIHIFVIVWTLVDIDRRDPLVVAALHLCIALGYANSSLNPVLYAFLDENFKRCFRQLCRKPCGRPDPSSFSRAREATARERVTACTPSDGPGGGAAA
Sequence of DOR (P41143 whole entry): as the sequence (P41143 whole entry D95A) above, with A95D counted along it
Sequence of DOR N131V3.35 (P41143 whole entry N131V, one chain of several): as the sequence (P41143 whole entry D95A) above, with A95D, N131V counted along it
Sequence of DOR WT (P41143 whole entry): as the sequence (P41143 whole entry D95A) above, with A95D counted along it
Sequence of DOR S135A3.39 (P41143 whole entry S135A, one chain of several): as the sequence (P41143 whole entry D95A) above, with A95D, S135A counted along it

Compound: CC(C)CN(C)c1nc(N)c(C(=O)N=C(N)N)nc1Cl [MIA, 5-(N-methyl-N-isobutyl)amiloride]
- agonist / allosteric activity at DOR (DOR): best ago-PAM
- effect of extracellular Na+ on agonistic activity (DOR): slightly increases
- modulator properties at mutant (DOR D95A2.50): almost complete loss of original properties
- allosteric modulation (PAM) at chimera (DOR chimera KOR-TM1): loss of allosteric modulation (PAM)
- effect on the Ki of naltrindole toward 3H-DADLE (DOR WT): no effect

Compound: NC(N)=NC(=O)c1nc(Cl)c(N2CCCCCC2)nc1N [HMA, 5-(N,N-hexamethylene)amiloride]
- effect of extracellular Na+ on agonistic activity (DOR): slightly increases
- modulator properties at mutant (DOR D95A2.50): almost complete loss of original properties
- allosteric modulation (PAM) at chimera (DOR chimera KOR-TM1): loss of allosteric modulation (PAM)
- functional effect [1]: modest effect

Compound: CN(C)c1nc(N)c(C(=O)NC(=N)N)nc1Cl [DMA, 5-(N,N-dimethyl)amiloride]
- agonist / allosteric activity at DOR (DOR): lack of DMA activity

Compound: Oc1ccc2c3c1O[C@H]1c4[nH]c5ccccc5c4C[C@@]4(O)[C@@H](C2)N(CC2CC2)CC[C@]314 [Naltrindole, naltrindole]
- reversal of the agonist activity of EIPA (DOR): reversed

Compound: C[N+](C)(C)CCOC(N)=O [carbachol]
- increase of efficacy (M2 muscarinic receptor): more than 3 fold
- increase of efficacy (M4 muscarinic receptor): more than 3 fold
- increase of efficacy (M5 muscarinic receptor): weakly increasing efficacy

Compound: NC(N)=Nc1ccc2c3c([nH]c2c1)[C@@H]1Oc2c(O)ccc4c2[C@@]12CCN(CC1CC1)[C@H](C4)[C@]2(O)C3 [6′-GNTI]
- reversal of the agonist activity of EIPA (DOR): reversed

Compound: CCN(c1nc(N)c(C(=O)N=C(N)N)nc1Cl)C(C)C [EIPA, 5-(N-ethyl-N-isopropyl)-amiloride]
- agonist / allosteric activity at DOR (DOR): significant agonist and positive allosteric modulation (ago-PAM)

Compound: NC(=Nc1ccccc1)NC(=O)c1nc(Cl)c(N)nc1N [Phenamil, phenamil]
- agonist / allosteric activity at DOR (DOR): inactive

Compound: N=C(N)NC(=O)c1nc(Cl)c(N)nc1N [Amiloride, amiloride]
- agonist / allosteric activity at DOR (DOR): no activity
- affinity (different GPCRs; allosteric modulation on different GPCRs): > 10 µM
- concentration with activity in biophysical studies (different GPCRs; most biophysical studies using amiloride): > 100 µM

Compound: NC(N)=Nc1ccc2[nH]c3c(c2c1)C[C@@]1(O)[C@H]2Cc4ccc(O)c5c4[C@@]1(CCN2CC1CC1)[C@H]3O5 [5′-GNTI]
- reversal of the agonist activity of EIPA (DOR): reversed

Compound: N=C(N)NC(=O)c1cnn(-c2cccc3ncccc23)c1C1CC1 [Zoniporide, zoniporide]
- agonist / allosteric activity at DOR (DOR): best PAM without intrinsic agonist activity
- toxicity (cells): no toxicity
- modulator properties at mutant (DOR D95A2.50): almost complete loss of original properties
- allosteric modulation (PAM) at chimera (DOR chimera KOR-TM1): loss of allosteric modulation (PAM)
- ago-PAM properties at mutant (DOR N131V3.35): increase in the ago-PAM properties
- ago-PAM properties at mutant (DOR S135A3.39): increase in the ago-PAM properties
- affinity (rat mu-opioid): 60 nM
- affinity (mouse delta-opioid): 238 nM
- interaction (kappa-opioid receptor): no detectable interaction
